Experiments:
molinate hydrolase [1] = biological target: T1, molinate hydrolase (Gulosibacter molinativorax, UniProt G2XLB0); assay: UV spectrophotometric molinate depletion at […] nm, […] 2-mercaptoethanol; type: biochemical
T1 construct: gene molA; recombinant protein with a 32 amino acid purification tag

molinate hydrolase [2] = biological target: T1, molinate hydrolase; assay: UV spectrophotometric molinate depletion at […] nm, […] L-cysteine; type: biochemical
molinate hydrolase [3] = biological target: T1, molinate hydrolase; assay: HPLC assay of molinate depletion with purified recombinant enzyme; competitive inhibition fit; type: biochemical
[4] = biological target: the molecule itself; assay: crystal structure; recombinant molinate hydrolase co-crystallised with ZnCl2 (4 or 8 mM), vapour diffusion at 20°C, sodium citrate pH 5.6-6.4, 2-propanol, PEG 4000, glycerol; monoclinic C2 with 8 monomers and orthorhombic with 4 monomers in the asymmetric unit

T1 sequence (G2XLB0 entry or part of it): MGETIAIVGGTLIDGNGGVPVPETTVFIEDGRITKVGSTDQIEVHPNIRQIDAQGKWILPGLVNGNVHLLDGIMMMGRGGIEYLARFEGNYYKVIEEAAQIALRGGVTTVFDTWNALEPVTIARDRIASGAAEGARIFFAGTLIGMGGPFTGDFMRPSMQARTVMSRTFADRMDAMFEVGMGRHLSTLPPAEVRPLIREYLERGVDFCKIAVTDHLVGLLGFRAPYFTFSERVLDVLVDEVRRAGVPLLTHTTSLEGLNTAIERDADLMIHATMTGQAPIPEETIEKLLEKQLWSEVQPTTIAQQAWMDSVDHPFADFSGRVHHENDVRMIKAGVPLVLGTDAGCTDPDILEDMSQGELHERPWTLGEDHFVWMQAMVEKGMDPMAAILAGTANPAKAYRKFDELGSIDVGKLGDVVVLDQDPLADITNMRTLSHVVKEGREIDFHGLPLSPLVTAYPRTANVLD

## OCCS [2-mercaptoethanol]
Molinate hydrolase [1]
  UV spectrophotometric molinate depletion at 220 nm, 3 mM 2-mercaptoethanol: other thiolated compounds, such as β-mercaptoethanol, also inhibited molinate hydrolase

## N[C@@H](CS)C(=O)O [L-cysteine]
Molinate hydrolase [2]
  UV spectrophotometric molinate depletion at 220 nm, 1.5 mM L-cysteine: cysteine also inhibits the enzyme activity, while serine and methionine do not

## CCS [ethanethiol]
Molinate hydrolase [3]
  Ki: 300 µM

B1: recombinant molinate hydrolase (enzyme, Gulosibacter molinativorax ON4T)
chain: GETIAIVGGTLIDGNGGVPVPETTVFIEDGRITKVGSTDQIEVHPNIRQIDAQGKWILPGLVNGNVHLLDGIMMMGRGGIEYLARFEGNYYKVIEEAAQIALRGGVTTVFDTWNALEPVTIARDRIASGAAEGARIFFAGTLIGMGGPFTGDFMRPSMQARTVMSRTFADRMDAMFEVGMGRHLSTLPPAEVRPLIREYLERGVDFCKIAVTDHLVGLLGFRAPYFTFSERVLDVLVDEVRRAGVPLLTHTTSLEGLNTAIERDADLMIHATMTGQAPIPEETIEKLLEKQLWSEVQPTTIAQQAWMDSVDHPFADFSGRVHHENDVRMIKAGVPLVLGTDAGCTDPDILEDMSQGELHERPWTLGEDHFVWMQAMVEKGMDPMAAILAGTANPAKAYRKFDELGSIDVGKLGDVVVLDQDPLADITNMRTLSHVVKEGREIDFHGLPLSPLVTAYPRTANVLD
notes: molinate hydrolase (MolA) from Gulosibacter molinativorax ON4T; 1984 residues expected for 4 monomers (496 each, tag included); One Zn2+ per monomer (occupancy set to 0.4) in the deposited structure; A SeMet derivative (from E. coli B834 (DE3), metal-depleted) was also solved, with the same overall structure; also called MolA; source: E. coli JM109 or B834 (DE3), vector pASKmolA, purified …
[4]
  stoichiometry N: 4

From publication PMC4407906, “Structure-Guided Engineering of Molinate Hydrolase for the Degradation of Thiocarbamate Pesticides” (PLoS ONE, 2015)
